# Laboratory results published in ChEMBL document CHEMBL4325848, “Quinoline and quinolone dimers and their biological activities: An overview” (Eur J Med Chem, 2019).
# pIC50: −log10 of the molar value.
# Legend:
# [1] = test system: Plasmodium falciparum; assay: Antiprotozoal activity against chloroquine-resistant Plasmodium falciparum W2; format: functional, organism-based
# [2] = test system: Plasmodium falciparum; assay: Antiprotozoal activity against chloroquine-sensitive Plasmodium falciparum D6; format: functional, organism-based
# [3] = Selectivity index, ratio of CC50 for human MRC5 cells to IC50 for chloroquine-resistant Plasmodium falciparum FcB1; format: toxicity; conditions: read-out: Ratio CC50/IC50
# [4] = test system: Plasmodium falciparum; assay: Antimalarial activity against chloroquine-resistant Plasmodium falciparum FcB1; format: functional, organism-based; conditions: FcB1/Columbia
# [5] = Cytotoxicity against human MRC5 cells; format: cell-based
# [6] = molecular target: Histone-lysine N-methyltransferase, H3 lysine-79 specific (Homo sapiens, UniProt Q8TEK3); assay: Inhibition of DOT1L (unknown origin)
# [7] = test system: Enterococcus; assay: Antibacterial activity against Enterococcus; format: functional
# [8] = test system: Proteus; assay: Antibacterial activity against Proteus; format: functional
# [9] = test system: Klebsiella pneumoniae; assay: Antibacterial activity against Klebsiella pneumoniae; format: functional
# [10] = test system: Escherichia coli; assay: Antibacterial activity against Escherichia coli; format: functional
# [11] = test system: Shigella; assay: Antibacterial activity against Shigella; format: functional
# [12] = test system: Staphylococcus aureus; assay: Antibacterial activity against Staphylococcus aureus; format: functional
# [13] = test system: Plasmodium falciparum; assay: Antimalarial activity against chloroquine-resistant Plasmodium falciparum K1; format: functional, organism-based
# [14] = test system: Plasmodium falciparum; assay: Antimalarial activity against chloroquine-sensitive Plasmodium falciparum 3D7; format: functional, organism-based
# [15] = test system: HL-60; assay: Antiproliferative activity against human HL60 cells; format: functional, cell-based
# [16] = test system: Plasmodium vinckei; assay: Antimalarial activity against Plasmodium vinckei infected in ip dosed mouse; format: functional
# [17] = test system: Kasumi 1; assay: Antiproliferative activity against human Kasumi-1 cells; format: functional, cell-based
# [18] = test system: MV4-11; assay: Antiproliferative activity against human MV4-11 cells; format: functional, cell-based
# [19] = test system: Plasmodium berghei; assay: Antimalarial activity against Plasmodium berghei N/13 infected in MF1 mouse; format: functional; conditions: read-out: ID50 (the source's name)
# [20] = test system: Plasmodium falciparum; assay: Antimalarial activity against pfmdr1-overexpressing chloroquine-resistant Plasmodium falciparum K1mef; format: functional, organism-based; conditions: K1 mef
# [21] = test system: Plasmodium falciparum; assay: Antimalarial activity against chloroquine-sensitive Plasmodium falciparum D10; format: functional, organism-based
# [22] = test system: Plasmodium falciparum; assay: Potency index, ratio of chloroquine IC50 to compound IC50 for antimalarial activity against chloroquine-resistant Plasmodium falciparum K1; format: functional
# [23] = test system: MCF7; assay: Antiproliferative activity against human MCF7 cells; format: functional
# [24] = test system: MDA-MB-468; assay: Antiproliferative activity against human MDA-MB-468 cells; format: functional
# [25] = test system: Staphylococcus aureus; assay: Antibacterial activity against Staphylococcus aureus 1199B; format: functional
# [26] = test system: Staphylococcus aureus; assay: Antibacterial activity against glycopeptide-intermediate Staphylococcus aureus; format: functional
# [27] = test system: Staphylococcus aureus; assay: Antibacterial activity against Staphylococcus aureus 1199; format: functional
# [28] = test system: Escherichia coli; assay: Antibacterial activity against Escherichia coli ATCC 8739 assessed as zone of inhibition at 50 ug/disc; format: functional; conditions: read-out: DIZ
# [29] = test system: Staphylococcus aureus; assay: Antibacterial activity against Staphylococcus aureus 1199-3; format: functional
# [30] = test system: Staphylococcus aureus; assay: Antibacterial activity against Staphylococcus aureus ATCC 6538 assessed as zone of inhibition at 100 ug/disc; format: functional; conditions: read-out: DIZ
# Sequence of Histone-lysine N-methyltransferase, H3 lysine-79 specific (Q8TEK3 whole entry): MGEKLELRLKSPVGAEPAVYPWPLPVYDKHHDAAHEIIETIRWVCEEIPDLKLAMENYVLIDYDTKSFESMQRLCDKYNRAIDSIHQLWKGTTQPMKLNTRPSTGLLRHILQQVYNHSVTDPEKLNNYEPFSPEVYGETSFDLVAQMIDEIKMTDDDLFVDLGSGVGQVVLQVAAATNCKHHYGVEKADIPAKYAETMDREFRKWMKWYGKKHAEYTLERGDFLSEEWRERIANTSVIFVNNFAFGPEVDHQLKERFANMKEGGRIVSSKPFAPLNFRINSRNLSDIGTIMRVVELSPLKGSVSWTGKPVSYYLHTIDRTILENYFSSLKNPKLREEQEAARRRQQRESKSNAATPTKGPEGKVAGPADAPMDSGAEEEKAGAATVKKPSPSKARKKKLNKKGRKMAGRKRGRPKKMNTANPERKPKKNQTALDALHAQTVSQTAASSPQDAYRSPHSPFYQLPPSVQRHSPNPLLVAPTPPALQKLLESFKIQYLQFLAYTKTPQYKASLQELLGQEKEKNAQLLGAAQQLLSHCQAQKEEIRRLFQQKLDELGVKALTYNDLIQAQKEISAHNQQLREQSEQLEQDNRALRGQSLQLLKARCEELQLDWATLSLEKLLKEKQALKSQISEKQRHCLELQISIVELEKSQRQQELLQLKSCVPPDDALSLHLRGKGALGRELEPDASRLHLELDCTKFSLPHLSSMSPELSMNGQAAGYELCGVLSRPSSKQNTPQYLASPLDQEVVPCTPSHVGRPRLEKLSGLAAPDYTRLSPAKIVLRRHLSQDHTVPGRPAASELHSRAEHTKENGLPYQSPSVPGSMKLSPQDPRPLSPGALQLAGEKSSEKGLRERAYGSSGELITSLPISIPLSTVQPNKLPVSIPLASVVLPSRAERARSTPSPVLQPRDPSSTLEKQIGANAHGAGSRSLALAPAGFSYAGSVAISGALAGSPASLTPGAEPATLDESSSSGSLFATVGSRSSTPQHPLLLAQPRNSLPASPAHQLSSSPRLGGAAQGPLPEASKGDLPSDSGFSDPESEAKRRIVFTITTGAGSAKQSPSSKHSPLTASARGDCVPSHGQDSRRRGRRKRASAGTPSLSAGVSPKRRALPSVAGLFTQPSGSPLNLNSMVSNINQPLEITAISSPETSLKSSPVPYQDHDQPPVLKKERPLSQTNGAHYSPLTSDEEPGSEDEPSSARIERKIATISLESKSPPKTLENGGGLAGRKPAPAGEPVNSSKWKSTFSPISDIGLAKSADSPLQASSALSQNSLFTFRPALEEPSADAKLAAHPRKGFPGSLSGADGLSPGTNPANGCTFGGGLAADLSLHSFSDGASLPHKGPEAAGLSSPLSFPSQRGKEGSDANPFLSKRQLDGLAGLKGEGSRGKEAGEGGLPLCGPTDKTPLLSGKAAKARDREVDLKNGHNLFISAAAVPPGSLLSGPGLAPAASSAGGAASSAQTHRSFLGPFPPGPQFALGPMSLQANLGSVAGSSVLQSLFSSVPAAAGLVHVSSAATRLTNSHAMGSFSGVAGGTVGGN
smiles,measurement,setting,value
Clc1ccc2c(NCCOCCOCCNc3ccnc4cc(Cl)ccc34)ccnc2c1,pIC50,[1],7.05 to 8.92
same,pIC50,[2],7.05 to 8.92
Clc1ccc2c(NCCOCCNc3ccnc4cc(Cl)ccc34)ccnc2c1,pIC50,[1],7.05 to 8.92
same,pIC50,[2],7.05 to 8.92
CN(CCCNc1ccnc2cc(Cl)ccc12)CCCNc1ccnc2cc(Cl)ccc12,pIC50,[1],7.05 to 8.92
same,pIC50,[2],7.05 to 8.92
Clc1ccc2c(NCCCN3CCN(CCCNCc4ccnc5ccccc45)CC3)ccnc2c1,selectivity ratio,[3],816
same,pIC50,[4],7.70
same,CC50,[5],16.4 µM
Cc1cc(N)c2cc(Nc3ccnc(Nc4ccc5nc(C)cc(N)c5c4)n3)ccc2n1,pIC50,[6],5.97
Clc1ccc2c(NCCCCCCNCCCCCCNc3ccnc4cc(Cl)ccc34)ccnc2c1,pIC50,[1],7.05 to 8.92
same,pIC50,[2],7.05 to 8.92
Clc1ccc2c(NCCCOCCOCCOCCCNc3ccnc4cc(Cl)ccc34)ccnc2c1,pIC50,[1],7.05 to 8.92
same,pIC50,[2],7.05 to 8.92
Clc1ccc2c(NCCCNCCNc3ccnc4cc(Cl)ccc34)ccnc2c1,pIC50,[1],7.05 to 8.92
same,pIC50,[2],7.05 to 8.92
O=C(O)c1cn(C2CC2)c2cc(N3CCN(c4nc(N5CCN(c6cc7c(cc6F)c(=O)c(C(=O)O)cn7C6CC6)CC5)c(F)c(S(=O)(=O)c5ccccc5)c4F)CC3)c(F)cc2c1=O,MIC,[7],0.25 to 2 µg/mL
same,MIC,[8],0.25 to 2 µg/mL
same,MIC,[9],0.25 to 2 µg/mL
same,MIC,[10],0.25 to 2 µg/mL
same,MIC,[11],0.25 to 2 µg/mL
same,MIC,[12],0.25 to 2 µg/mL
Clc1ccc2c(NCCCOCCCCOCCCNc3ccnc4cc(Cl)ccc34)ccnc2c1,pIC50,[1],7.05 to 8.92
same,pIC50,[2],7.05 to 8.92
CCC(C)[C@H](Nc1ccnc2cc(Cl)ccc12)C(=O)NCCNc1ccnc2cc(Cl)ccc12 (stereo not given in full),pIC50,[13],7.59
same,pIC50,[14],7.62
COc1cc(C)nc2ccc(Nc3cc(C)nc(Nc4ccc5nc(C)cc(OC)c5c4)n3)cc12,pIC50,[6],4.66
Cc1cc(Nc2ccc3nc(C)cc(O)c3c2)nc(Nc2ccc3nc(C)cc(O)c3c2)n1,pIC50,[6],5.36
C[C@H]1COc2c(N3CCN(C)CC3)c(F)cc3c(=O)c(-c4nn5c(-c6cn(C7CC7)c7cc(N8CCNCC8)c(F)cc7c6=O)nnc5s4)cn1c23,pIC50,[15],6.92
CN1CCN(c2cc3c(cc2F)c(=O)c(-c2nn4c(-c5cn(C6CC6)c6cc(N7CCNCC7)c(F)cc6c5=O)nnc4s2)cn3C2CC2)CC1,pIC50,[15],6.27
c1ccc2c(c1)nc(NCCCN1CCN(CCCNc3nc4ccccc4c4sccc34)CC1)c1ccsc12,ED50,[16],30 mg/kg
O=C(O)c1cn(C2CC2)c2cc(N3CCN(c4nc(Cl)nc(N5CCN(c6cc7c(cc6F)c(=O)c(C(=O)O)cn7C6CC6)CC5)n4)CC3)c(F)cc2c1=O,MIC,[7],0.25 to 2 µg/mL
same,MIC,[8],0.25 to 2 µg/mL
same,MIC,[9],0.25 to 2 µg/mL
same,MIC,[10],0.25 to 2 µg/mL
same,MIC,[11],0.25 to 2 µg/mL
same,MIC,[12],0.25 to 2 µg/mL
Cc1cc(N)c2cc(Nc3cc(Nc4ccc5nc(C)cc(N)c5c4)ncn3)ccc2n1,pIC50,[17],4.34
same,pIC50,[6],5.97
same,pIC50,[18],4.52
FC(F)(F)c1ccc2c(N[C@@H]3CCCC[C@H]3Nc3ccnc4cc(C(F)(F)F)ccc34)ccnc2c1,ED50,[19],5.9 mg/kg
Cc1cc(Nc2ccc3nc(C)cc(N)c3c2)nc(Nc2ccc3nc(C)cc(N)c3c2)n1,pIC50,[6],5.82
CCC1C[C@@H]2CC[C@H]1CC2C(O)c1ccnc2c(NC(=O)CCCCC(=O)Nc3cccc4c(C(O)C5C[C@@H]6CC[C@H]5C(CC)C6)ccnc34)cccc12 (stereo not given in full),pIC50,[20],7.70
same,pIC50,[13],7.70
same,pIC50,[21],7.30
CCN(CC)CCCC(C)Nc1cc(CCCCCCCCCCCCc2cc(NC(C)CCCN(CC)CC)c3ccccc3n2)nc2ccccc12 (stereo not given),Ratio IC50,[22],31.7
Clc1ccc2c(NCCNc3ccnc4cc(Cl)ccc34)ccnc2c1,GI50,[23],14.8 µM
same,GI50,[24],7.35 µM
Clc1ccc2c(N[C@@H]3CCCC[C@H]3Nc3ccnc4cc(Cl)ccc34)ccnc2c1 (relative stereo),ED50,[19],3 mg/kg
same,pIC50,[1],8.85
same,pIC50,[2],9.00
O=C(O)c1cn(C2CC2)c2cc(N3CCNCC3)c(F)cc2c1=O [CIPROFLOXACIN],MIC,[25],0.125 to 16 µg/mL
same,MIC,[26],> 16 µg/mL
same,MIC,[27],0.125 to 16 µg/mL
same,zone of inhibition at 50 µg/disc,[28],36 mm
same,MIC,[29],0.125 to 16 µg/mL
same,zone of inhibition at 100 µg/disc,[30],38 mm
CCn1cc(C(=O)O)c(=O)c2cc(F)c(N3CCNCC3)cc21 [NORFLOXACIN],MIC,[25],0.125 to 16 µg/mL
same,MIC,[26],> 16 µg/mL
same,MIC,[27],0.125 to 16 µg/mL
same,MIC,[29],0.125 to 16 µg/mL
CCn1cc(C(=O)O)c(=O)c2cnc(N3CCNCC3)nc21 [PIPEMIDIC ACID],MIC,[25],0.125 to 16 µg/mL
same,MIC,[26],> 16 µg/mL
same,MIC,[27],0.125 to 16 µg/mL
same,MIC,[29],0.125 to 16 µg/mL
